# Experimental data taken from ChEMBL document CHEMBL5727909, “Pyridine derivatives and their use in the treatment of cancer and hemoglobinopathies” (2020).
# Molecular target: Protein arginine N-methyltransferase 5 (Homo sapiens, UniProt O14744)
# Test: Biochemical Assay : The 6 μL reactions are run in Greiner brand black 384-well low volume assay plates. All reactions contained assay buffer (phosphate buffered saline, 0.01% (v/v) Tween-20, 0.01% (w/v) albumin from chicken egg white, 1 mM Dithiothreitol, 1 μM peptide substrate, 1 μM S-Adenosyl methionine, and 15 ng/reaction enzyme, with the enzyme being omitted from negative control reactions. Compounds were added in a volume of 100 nL from dilution series prepared in DMSO, positive and negative control reactions receiving the same volume DMSO without compound. The plates were sealed with adhesive seals and incubated for 4 hours at 37 degree Celsius. Reaction progress was measured using the Transcreener EPIGEN methyltransferase assay (BellBrook Labs, Madison, Wis.) as recommended by the manufacturer. To each reaction 2 μL detection mix were added, containing coupling enzymes, fluorescence polarisation tracer, and AMP antibody. Plates were incubated for 90 minutes before being read on a PerkinElmer EnVision™ plate reader in fluorescence polarisation mode.
# Protein arginine N-methyltransferase 5, sequence (O14744 whole entry): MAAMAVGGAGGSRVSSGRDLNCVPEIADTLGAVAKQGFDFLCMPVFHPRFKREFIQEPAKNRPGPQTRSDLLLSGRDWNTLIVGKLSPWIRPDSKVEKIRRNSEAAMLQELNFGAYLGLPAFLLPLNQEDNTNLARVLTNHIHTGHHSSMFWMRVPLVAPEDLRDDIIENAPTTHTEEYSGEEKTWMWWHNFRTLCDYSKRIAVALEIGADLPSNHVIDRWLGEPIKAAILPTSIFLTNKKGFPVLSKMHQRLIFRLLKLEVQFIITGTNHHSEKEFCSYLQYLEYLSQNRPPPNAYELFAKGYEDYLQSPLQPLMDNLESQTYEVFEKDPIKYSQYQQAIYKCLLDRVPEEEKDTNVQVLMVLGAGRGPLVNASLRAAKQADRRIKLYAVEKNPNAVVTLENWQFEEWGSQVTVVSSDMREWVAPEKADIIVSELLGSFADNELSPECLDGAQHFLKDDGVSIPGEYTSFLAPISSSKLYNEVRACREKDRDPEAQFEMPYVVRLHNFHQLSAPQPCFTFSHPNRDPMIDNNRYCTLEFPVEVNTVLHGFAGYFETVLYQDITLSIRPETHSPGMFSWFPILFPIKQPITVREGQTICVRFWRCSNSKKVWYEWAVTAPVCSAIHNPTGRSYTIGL
smiles,measurement,value
CC(=O)N1CCC(Nc2nccc(C(=O)NC[C@@H](O)CNC3CC4C=CC=CC4C3)c2C)CC1 (stereo partly specified),IC50,105 nM
